Values quoted from earlier work in patent EP4660212A1, “POLYVINYL ALCOHOL-BASED POLYMER” (Japan Vam & Poval Co., Ltd., priority 2023, dated 2024).

Details: water at 20°C

Row | SMILES | solubility in 100 mL (100 g) of water
1 | c1ccc2cc3ccccc3cc2c1 [anthracene] | about 0.13 mg/100 g water
2 | CCOc1ccccc1C(N)=O [ethenzamide] | about 100 mg/100 g water
